The experiment has as its target Sucrase-isomaltase, intestinal (Rattus norvegicus, UniProt P23739). Briefly: In Vitro α-Glucosidase Inhibitory Assay. Particulars: pH 6.8. How it is done:
Rat intestinal acetone powder in normal saline (100: 1; w/v) was sonicated thoroughly and the supernatant was used as a source of crude intestinal α-glucosidase after centrifugation. In brief, […] of test sample ( 5 mg/mL DMSO solution) was reconstituted in […] of 100 mM phosphate buffer (pH 6.8) in a 96-well microplate and incubated with […] of crude intestinal α-glucosidase for 5 min before […] substrate (5 mM pNPG prepared in same buffer) was added. Release of p-nitrophenol was measured at 405 nm spectrophotometrically (SpectraMax Plus384; Molecular Devices Corp., Sunnyvale, CA, USA) 5 min after incubation withsubstrate. Individual blanks for test samples were prepared to correct background absorbance where substrate was replaced with […] of buffer. The control samplecontained […] of dimethylsulfoxide (DMSO) in place of test sample.

Sequence of Sucrase-isomaltase, intestinal (P23739 1-1013 limits assumed): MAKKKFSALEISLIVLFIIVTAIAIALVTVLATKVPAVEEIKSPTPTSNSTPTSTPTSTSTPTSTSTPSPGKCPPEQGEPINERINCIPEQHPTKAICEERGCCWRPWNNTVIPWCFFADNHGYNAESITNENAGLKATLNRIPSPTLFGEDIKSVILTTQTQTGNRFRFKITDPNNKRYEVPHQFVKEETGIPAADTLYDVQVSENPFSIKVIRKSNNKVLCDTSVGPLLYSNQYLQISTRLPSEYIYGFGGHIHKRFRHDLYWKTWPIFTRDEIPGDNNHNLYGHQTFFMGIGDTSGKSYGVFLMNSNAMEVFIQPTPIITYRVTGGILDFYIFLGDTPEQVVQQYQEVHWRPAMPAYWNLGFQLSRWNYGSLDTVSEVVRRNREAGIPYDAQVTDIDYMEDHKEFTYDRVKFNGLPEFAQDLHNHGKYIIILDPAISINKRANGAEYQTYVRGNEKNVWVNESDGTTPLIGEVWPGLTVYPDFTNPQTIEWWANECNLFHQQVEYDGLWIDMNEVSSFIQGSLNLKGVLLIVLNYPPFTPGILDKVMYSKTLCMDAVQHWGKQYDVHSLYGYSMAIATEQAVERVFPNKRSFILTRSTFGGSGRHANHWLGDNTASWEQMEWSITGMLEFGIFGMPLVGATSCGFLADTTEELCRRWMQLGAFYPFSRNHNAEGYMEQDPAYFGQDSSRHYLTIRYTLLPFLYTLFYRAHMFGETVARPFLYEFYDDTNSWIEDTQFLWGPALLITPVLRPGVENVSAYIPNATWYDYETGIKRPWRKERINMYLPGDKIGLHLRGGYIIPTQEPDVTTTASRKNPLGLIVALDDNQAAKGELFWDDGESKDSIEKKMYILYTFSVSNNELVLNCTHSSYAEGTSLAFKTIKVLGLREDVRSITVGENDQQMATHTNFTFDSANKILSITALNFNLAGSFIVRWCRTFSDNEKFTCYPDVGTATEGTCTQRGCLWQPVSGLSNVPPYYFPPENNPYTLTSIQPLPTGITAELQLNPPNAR
Sequence of Sucrase-isomaltase, intestinal (P23739 1014-1841 limits assumed): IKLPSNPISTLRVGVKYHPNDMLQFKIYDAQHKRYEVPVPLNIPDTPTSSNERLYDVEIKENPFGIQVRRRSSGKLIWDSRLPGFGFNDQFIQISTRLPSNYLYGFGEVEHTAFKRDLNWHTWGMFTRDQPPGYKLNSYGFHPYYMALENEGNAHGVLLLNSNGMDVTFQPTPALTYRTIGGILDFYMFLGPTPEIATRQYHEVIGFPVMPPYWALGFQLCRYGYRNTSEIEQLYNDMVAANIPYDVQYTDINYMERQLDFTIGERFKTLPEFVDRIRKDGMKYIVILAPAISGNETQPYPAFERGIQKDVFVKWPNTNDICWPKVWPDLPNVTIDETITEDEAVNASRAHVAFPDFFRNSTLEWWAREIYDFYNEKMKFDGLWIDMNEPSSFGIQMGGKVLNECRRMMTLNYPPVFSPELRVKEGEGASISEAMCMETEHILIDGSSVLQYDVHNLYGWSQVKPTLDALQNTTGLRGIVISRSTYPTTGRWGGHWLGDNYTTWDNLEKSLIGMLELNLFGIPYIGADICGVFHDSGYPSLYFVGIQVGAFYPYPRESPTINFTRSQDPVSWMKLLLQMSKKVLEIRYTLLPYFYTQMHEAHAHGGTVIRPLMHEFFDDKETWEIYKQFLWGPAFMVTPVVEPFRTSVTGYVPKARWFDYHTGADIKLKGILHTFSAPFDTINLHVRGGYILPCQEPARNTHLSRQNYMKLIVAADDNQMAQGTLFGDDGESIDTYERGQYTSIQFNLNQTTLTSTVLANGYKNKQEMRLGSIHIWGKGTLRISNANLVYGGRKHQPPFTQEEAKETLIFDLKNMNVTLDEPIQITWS

A word on the IC50: it is the point on the concentration scale where inhibition reaches its midpoint. Lower therefore signals greater potency. `O=[N+]([O-])c1ccc2[nH]c(-c3ccncc3)nc2c1` [6-Nitro-2-(4-pyridyl)-1H-benzo[d]imidazole (3e)] showed a half-maximal inhibitory concentration (IC50) of 99.4 µM.
